Data from patent US12685733B2, “Indole molecules and use thereof in the inhibition of DNA polymerases” (BioVentures, LLC, priority 2019, dated 2026).

Key:
[1] = system: hpol κ-deficient HAP-1 cells; assay: Clonogenic survival assay; format: cell-based, human; conditions: 250 μM TMZ
Method: (§1) HAP-1 and hpol κ^KO cells were purchased from Horizons Discovery Group LLC (Cambridge, UK). The company generated the Hap1 cells using CRISPR-Cas9 technology and the elimination of kappa expression was confirmed by Sanger sequence genome editing. We further confirmed the elimination of hpol κ protein expression by Western blotting (data not shown). Hap1 cells were cultured in Iscove's modified Dulbecco's medium (IMDM; Invitrogen, CA, USA) supplemented with 10% (v/v) fetal bovine serum (FBS; Atlas Biologicals, CO, USA) and 1% (v/v) antibiotic/antimycotic solution (Sigma-Aldrich, MO, USA).T98G cells were purchased from ATCC (American Type Culture Collection, VA, USA). T98G cells were cultured in MEM (Minimum Essential Medium) (Invitrogen, CA, USA) supplemented with 10% (v/v) FBS (Fetal Bovine Serum, Atlas Biologicals, CO, USA) and antibiotic/antimycotic solution (1%, v/v) (Sigma-Aldrich, MO, USA). NT2 cells were kindly provided by Dr. Michael Borrelli (University of Arkansas for Medical Sciences, AR, USA). NT2 cells were cultured in DMEM/F12 (Dulbecco's Modified Eagle Medium) supplemented with 10% (v/v) FCS (Fetal Calf Serum) and antibiotic/antimycotic solution (1%) (Sigma-Aldrich, MO, USA).
(§2) To measure the clonogenic ability, cells were plated (500 cells per well) in 6-well dishes. In the case of HAP-1 cells, cells were treated the following day after plating, with temozolomide (TMZ) (0, 1, 5, 50, 125 and 250 μM) alone or in combination with UAMS-48 (0.1 and 0.5 μM) for 1 hour. In the case of T98G and NT2 cells, treatment was done on the following day of plating, with increasing concentrations of TMZ alone or in combination with UAMS-48 (50 nM) for 3 hrs. T98G and NT2 cells were treated with increasing concentrations of UAMS-48 for 3 hrs. After treatment, cells were cultured in fresh IMDM supplemented with 10% FBS for 10 days. The colonies were gently washed with 1×PBS, fixed with 3.7% (v/v) formaldehyde for 20 mins at RT and stained with crystal violet solution (Sigma-Aldrich, MO, USA) for 30 mins at RT.
(§3) The fixed crystal-violet stained colonies in each 6-well plate were examined under an EVOS XL Core imaging system (Thermo Fisher Scientific) under bright-field, and the colonies were inspected manually. […] Color images of each 6-well plate were captured and opened for processing using the Fiji version of the freely available software ImageJ. Setting the appropriate threshold for counting colonies for each cell type, corresponding to the respective radii calculated previously, the colonies were counted using the Colony Area plugin of ImageJ. Manual counting was performed on a few wells picked randomly, and the colony count so obtained was tallied with the number obtained using ImageJ, to ensure they matched reasonably. All experiments were performed in triplicate, and the colony number for each well was expressed as the mean (±standard deviation). The results were plotted to generate a dose response curve for TMZ treatment using the software Graphpad Prism, where the mean number of colonies was plotted along the Y-axis, and the TMZ concentration along the X-axis. Bar charts comparing the mean number of colonies as a function of the various conditions were also plotted for both cell types. Combination index values were calculated using the Chou-Talalay method (Chou 2010).

[2] = system: hpol κ-proficient HAP-1 cells; assay: Clonogenic survival assay; format: cell-based, human; conditions: 250 μM TMZ alone
Method: as §1, §2, §3

[3] = target: T1, hpol κ (Homo sapiens, UniProt Q9UBT6); assay: Fluorescence-based (TAMRA/BHQ strand displacement) DNA polymerase activity assay; conditions: for activity at 40 µM: read-out: % Activity Mean (hpol κ activity)
T1 sequence (Q9UBT6 19-526): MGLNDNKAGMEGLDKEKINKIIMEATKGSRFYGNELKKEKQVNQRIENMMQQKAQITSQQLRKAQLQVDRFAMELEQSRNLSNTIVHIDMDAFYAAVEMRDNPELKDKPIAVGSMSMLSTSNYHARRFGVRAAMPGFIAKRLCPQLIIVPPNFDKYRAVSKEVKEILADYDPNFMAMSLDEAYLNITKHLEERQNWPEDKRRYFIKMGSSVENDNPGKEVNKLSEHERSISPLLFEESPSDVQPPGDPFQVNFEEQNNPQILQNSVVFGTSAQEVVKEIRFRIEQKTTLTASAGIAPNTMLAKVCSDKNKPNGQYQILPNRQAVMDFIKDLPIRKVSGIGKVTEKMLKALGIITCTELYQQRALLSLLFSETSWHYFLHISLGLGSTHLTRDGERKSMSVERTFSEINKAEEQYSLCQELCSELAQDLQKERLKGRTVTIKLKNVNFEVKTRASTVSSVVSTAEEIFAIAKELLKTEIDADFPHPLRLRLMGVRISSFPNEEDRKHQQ

[4] = target: T2, recombinant hpol κ (Homo sapiens, UniProt Q9UBT6); conditions: earlier screen; cited from earlier work
T2 sequence (Q9UBT6 1-870): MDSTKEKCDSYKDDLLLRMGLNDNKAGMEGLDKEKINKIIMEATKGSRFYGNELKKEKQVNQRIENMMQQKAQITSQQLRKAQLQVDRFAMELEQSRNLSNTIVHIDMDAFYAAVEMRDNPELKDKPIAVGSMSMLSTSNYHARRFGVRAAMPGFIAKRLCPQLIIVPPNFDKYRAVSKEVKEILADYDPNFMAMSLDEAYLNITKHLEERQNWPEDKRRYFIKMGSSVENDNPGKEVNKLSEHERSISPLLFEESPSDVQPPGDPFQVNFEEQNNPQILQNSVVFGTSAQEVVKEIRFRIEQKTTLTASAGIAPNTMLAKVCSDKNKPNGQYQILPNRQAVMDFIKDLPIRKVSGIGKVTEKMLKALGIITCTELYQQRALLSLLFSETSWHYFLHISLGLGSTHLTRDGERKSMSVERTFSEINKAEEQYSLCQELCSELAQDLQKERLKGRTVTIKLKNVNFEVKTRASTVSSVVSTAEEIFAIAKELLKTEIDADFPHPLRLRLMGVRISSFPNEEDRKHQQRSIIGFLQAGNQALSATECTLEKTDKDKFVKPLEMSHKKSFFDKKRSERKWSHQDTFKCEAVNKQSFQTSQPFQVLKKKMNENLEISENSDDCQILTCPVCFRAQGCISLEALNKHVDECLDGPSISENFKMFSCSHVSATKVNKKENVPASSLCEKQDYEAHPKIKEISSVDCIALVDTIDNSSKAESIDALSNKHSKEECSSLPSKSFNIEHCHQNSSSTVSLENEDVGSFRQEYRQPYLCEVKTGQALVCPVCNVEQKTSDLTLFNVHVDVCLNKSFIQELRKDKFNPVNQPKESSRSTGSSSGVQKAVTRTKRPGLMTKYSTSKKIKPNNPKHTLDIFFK

| SMILES | activity at 40 µM [3] [%] | also measured |
| --- | --- | --- |
| Cn1nnc2c(C(N)=O)ncn2c1=O [TMZ, temozolomide, reference compound] | – | colonies formed relative to untreated cells [1]: less than 50%; colonies formed relative to control [2]: ~ 75% |
| Cc1c(C=C2C(=O)NC(=O)NC2=O)c2ccccc2n1Cc1ccc(Br)cc1 [IBA-19] | 93.3 | – |
| N=C(N)N/N=C/c1cn(Cc2ccc3ccccc3c2)c2ccccc12 [IAG-4] | 95 | IC50 [3]: 48.3 µM |
| COc1ccc(Cn2cc(C=C3C(=O)NC(=O)NC3=O)c3cccnc32)cc1 [IBA-4] | 110 | – |
| O=C1NC(=O)C(=Cc2cn(Cc3ccc4ccccc4c3)c3ccc(Cl)cc23)C(=O)N1 [IBA-31] | 67.6 | – |
| O=C1NC(=S)NC(=O)C1=Cc1cn(C(=O)c2ccc3ccccc3c2)c2ccccc12 [IBA-30] | 81.4 | – |
| CC(C)c1ccc2c(c1)c(SC(C)(C)C)c(CC(C)(C)C(=O)O)n2Cc1ccc(Cl)cc1 [MK-886] | – | IC50 for inhibition of recombinant hpol κ [4]: tens of micromolar |
| O=C1NC(=O)C(=Cc2cn(Cc3cccc4ccccc34)c3ncc(Cl)cc23)C(=O)N1 [IBA-8] | 103 | – |
| Cc1c(C=C2C(=O)NC(=O)NC2=O)c2cc(Cl)ccc2n1Cc1cccc2ccccc12 [IBA-12] | 96.6 | – |
| O=C1NC(=O)C(=Cc2cn(Cc3cccc(C(F)(F)F)c3)c3ncccc23)C(=O)N1 [IBA-9] | 103 | – |
| COc1ccc2c(c1)c(C=C1C(=O)NC(=S)NC1=O)cn2C(=O)c1ccc2ccccc2c1 [IBA-20] | 92.9 | – |
| Cc1c(C=C2C(=O)NC(=S)NC2=O)c2ccccc2n1C(=O)c1cccc2ccccc12 [IBA-26] | 86.4 | – |
| COc1ccc2c(c1)c(C=C1C(=O)NC(=S)NC1=O)c(C)n2Cc1cccc2ccccc12 [IBA-23] | 91 | – |
| O=C1NC(=S)NC(=O)C1=Cc1cn(Cc2ccc3ccccc3c2)c2ccc(Cl)cc12 [IBA-32] | 56.5 | turnover number (kcat), hpol κ-catalyzed dTTP insertion ([3]; steady-state kinetics with varying inhibitor concentration): it was the kcat and not the KdNTP that was altered |
| O=C1NC(=S)NC(=O)C1=Cc1cn(C(=O)c2cccc3ccccc23)c2ccccc12 [IBA-29] | 83.3 | – |
| O=C1NC(=O)C(=Cc2cn(Cc3ccc4ccccc4c3)c3ncc(Cl)cc23)C(=O)N1 [IBA-21] | 92.2 | – |
| N=C(N)N/N=C/c1cn(Cc2cccc3ccccc23)c2ccc(Cl)cc12 [IAG-7] | 64 | IC50 [3]: 24.2 µM |
| Cc1c(C=C2C(=O)NC(=O)NC2=O)c2ccccc2n1C(=O)c1cccc2ccccc12 [IBA-7] | 107 | – |
| N#Cc1ccc(Cn2cc(C=C3C(=O)NC(=O)NC3=O)c3ccccc32)cc1 [IBA-10] | 102 | – |
| N#Cc1ccc(Cn2cc(C=C3C(=O)NC(=O)NC3=O)c3cccnc32)cc1 [IBA-24] | 88.8 | – |
| O=C1NC(=S)NC(=O)C1=Cc1cn(Cc2ccc3ccccc3c2)c2ncc(Cl)cc12 [IBA-28] | 84.4 | – |
| N=C(N)N/N=C/c1cn(C(=O)c2ccc3ccccc3c2)c2ccc(Cl)cc12 [IAG-9] | 30 | IC50 [3]: 18.8 µM |

| SMILES | activity at 40 µM [3] [%] | also measured |
| --- | --- | --- |
| COc1ccc(Cn2cc(C=C3C(=O)NC(=S)NC3=O)c3cccnc32)cc1 [IBA-15] | 95.1 | – |
| Cc1c(C=C2C(=O)NC(=O)NC2=O)c2ccccc2n1C(=O)c1ccc2ccccc2c1 [IBA-14] | 95.7 | – |
| O=C1NC(=S)NC(=O)C1=Cc1cn(C(=O)c2cccc3ccccc23)c2ccc(Cl)cc12 [IBA-27] | 85.8 | – |
| COc1ccc2c(c1)c(C=C1C(=O)NC(=S)NC1=O)cn2C(=O)c1cccc2ccccc12 [IBA-17] | 93.8 | – |
| O=C1NC(=S)NC(=O)C1=Cc1cn(Cc2cccc(C(F)(F)F)c2)c2ncccc12 [IBA-13] | 96.6 | – |
| O=C1NC(=S)NC(=O)C1=Cc1cn(Cc2cccc3ccccc23)c2ccc(Cl)cc12 [IBA-6] | 108 | – |
| COc1ccc2c(c1)c(C=C1C(=O)N(C)C(=O)N(C)C1=O)c(C)n2Cc1cccc2ccccc12 [IBA-2] | 114 | – |
| O=C1NC(=O)C(=Cc2cn(Cc3ccc4ccccc4c3)c3ccccc23)C(=O)N1 [IBA-33] | 17.9 | – |
| O=C1NC(=S)NC(=O)C1=Cc1cn(Cc2cccc3ccccc23)c2ncc(Cl)cc12 [IBA-5] | 109 | – |
| Cc1c(/C=N/NC(=N)N)c2ccccc2n1C(=O)c1cccc2ccccc12 [IAG-1] | 105 | IC50 [3]: 84.6 µM |
| Cc1c(C=C2C(=O)N(C)C(=O)N(C)C2=O)c2cc(Cl)ccc2n1Cc1cccc2ccccc12 [IBA-3] | 111 | – |
| COc1ccc2c(c1)c(/C=N/NC(=N)N)cn2Cc1ccc2ccccc2c1 [IAG-5] | 94 | IC50 [3]: 43.7 µM |
| O=C1NC(=S)NC(=O)C1=Cc1cn(Cc2ccc(Br)cc2)c2ccc(COCCN3CCOCC3)cc12 [IBA-22] | 91.1 | – |
| N=C(N)N/N=C/c1cn(Cc2cccc3ccccc23)c2ccc(Br)cc12 [IAG-8] | 57 | IC50 [3]: 7.2 to 24.2 µM |
| Cc1c(C=C2C(=O)NC(=S)NC2=O)c2cc(Cl)ccc2n1Cc1cccc2ccccc12 [IBA-11] | 99.1 | – |
| O=C1NC(=S)NC(=O)C1=Cc1cn(C(=O)c2ccc3ccccc3c2)c2ccc(Cl)cc12 [IBA-25] | 87.6 | – |
| COc1ccc2c(c1)c(/C=N/NC(=N)N)cn2C(=O)c1cccc2ccccc12 [IAG-2] | 104 | IC50 [3]: 68.6 µM |
| N#Cc1ccc(Cn2cc(C=C3C(=O)NC(=S)NC3=O)c3cccnc32)cc1 [IBA-16] | 94.5 | – |
| Cc1c(C=C2C(=O)NC(=S)NC2=O)c2ccccc2n1C(=O)c1ccc2ccccc2c1 [IBA-18] | 93.5 | – |
| O=C1NC(=S)NC(=O)C1=Cc1cn(Cc2ccc3ccccc3c2)c2ccccc12 [IBA-1] | 116 | – |
| O=C1NC(=S)NC(=O)C1=Cc1cn(Cc2cccc3ccccc23)c2ccc(Br)cc12 [IBA-34] | 3.7 | – |
